Results from patent US7504095B2, “Method for obtaining precursor Z and use thereof for the production of a means for therapy of human molybdenum cofactor deficiency” (Technische Universitaet Braunschweig, priority 2004, dated 2009).

Columns and labels:
[1] = tested on: MPT-synthesis in MOCS1-deficient liver extracts; experiment: In vitro reconstitution of MOCS1-deficient liver extract, nit-1 reconstitution assay; format: biochemical, mice
Method: (§1) FIG. 6: Restoration of the MPT-biosynthesis in vitro and in vivo. (a) In vitro restoration of MOCS1-deficient liver extracts with precursor Z. Protein raw extract of a five day old MOCS1^−/− were incubated (1 h) with the indicated amounts of purified precursor Z per mg protein. Restoration of MPT-synthesis was measured by means of nit-1 reconstitution assay. (b-d) Biochemical analysis of precursor Z treated MOCS1-deficient animals. The mice were twice weekly injected with increasing amounts of precursor Z, beginning with 2 μg after birth and up to 8 μg after weaning. Between the days 25-55 after birth the treatment was stopped. On day 0 (4 hours after the last injection), 1, 4 and 7 respectively, two mice were sacrificed. Two liver samples of each animal were removed and separately further processed. Each value in the figure was thus determined four times. Total-MPT inclusive Moco (b), sulphite oxidase activity (c) and xanthine dehydrogenase (d) are indicated as percentage of the corresponding wildtype value (n=4).
The biological activity of the purified precursor Z could be verified by a quantitive in vitro conversion to MPT tinder use of purified E. coli MPT-Synthase^B26 . […] In order to determine the amount of precursor Z needed for a successful reestablishment of Moco-biosynthesis in MOCS1-deficient mice, we carried out an in vitro reconstitution with various amount of precursor Z in protein-raw extract from the liver of five day old MOCS1-deficient mice carried out (FIG. 6a). In the case of the employment of 134 ng precursor Z/mg protein a near complete reestablishment of Moco-biosynthesis could be achieved, while 27 ng precursor Z led to a reconstitution of approximately 50%. The protein total concentration of the liver extract amounted to 6 mg (obtained from 50 mg total liver tissue) which necessitated a total required amount of precursor Z of 0.8 μg for each animal for complete reestablishment of the MPT-synthesis under in vitro conditions. Accordingly for an adult animal with a body weight of 20 g and an approximate mass or weight of the liver of 1 g, 16 μg precursor Z was needed for complete reestablishment, however only 3 μg for an activation of 50%. […] Although the in vitro titration experiment yielded no information regarding which part of the Moco is transmitted to the Apo-sulfhite-oxidase, the investigated or established amount of precursor Z related to the maximal capacity of the MPT-production in the liver of MOCS1-deficient mice.

[2] = tested on: Total-MPT inclusive Moco; experiment: MPT content in liver after last injection; format: in vivo, mice
Method: as §1, with “Total-MPT inclusive Moco (b), sulphite oxidase activity (c) and xanthine dehydrogenase (d) are indicated as percentage of the corresponding wildtype value (n=4).” left out
In homozygote MOCS1^−/−-animals, in which precursor Z was injected regularly and which appeared normal with regard to weight, appearance and behavior, the treatment was halted and the animals were sacrificed sequentially at days 0, 1, 4 and 7 after the last injection in order to determine the MPT-content and the Mo-enzyme activity in the liver (FIG. 6b-d). Due to the rapid conversion of the administered precursor Z to MPT, the highest MPT-value was measured on the day of the injection (16±1% of the wildtype; FIG. 6b). […]

[3] = target: E. coli MPT-Synthase (Escherichia coli, UniProt P30749); experiment: In vitro conversion of precursor Z to MPT with purified MPT-synthase; format: biochemical; conditions: double excess of MPT-synthase, HPLC formA analysis
E. coli MPT-Synthase, sequence (P30749 whole entry): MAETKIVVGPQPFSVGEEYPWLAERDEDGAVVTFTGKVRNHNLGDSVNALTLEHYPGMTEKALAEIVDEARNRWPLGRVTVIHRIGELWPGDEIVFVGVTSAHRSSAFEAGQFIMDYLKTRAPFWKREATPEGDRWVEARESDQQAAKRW
E. coli MPT-Synthase, sequence (P30748 whole entry, further chain): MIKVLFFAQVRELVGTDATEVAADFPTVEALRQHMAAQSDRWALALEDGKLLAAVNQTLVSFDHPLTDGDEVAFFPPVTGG
Excerpt: The biological activity of the purified precursor Z could be verified by a quantitive in vitro conversion to MPT tinder use of purified E. coli MPT-Synthase^B26 . […] In order to determine the amount of precursor Z needed for a successful reestablishment of Moco-biosynthesis in MOCS1-deficient mice, we carried out an in vitro reconstitution with various amount of precursor Z in protein-raw extract from the liver of five day old MOCS1-deficient mice carried out (FIG. 6a). In the case of the employment of 134 ng precursor Z/mg protein a near complete reestablishment of Moco-biosynthesis could be achieved, while 27 ng precursor Z led to a reconstitution of approximately 50%. The protein total concentration of the liver extract amounted to 6 mg (obtained from 50 mg total liver tissue) which necessitated a total required amount of precursor Z of 0.8 μg for each animal for complete reestablishment of the MPT-synthesis under in vitro conditions. Accordingly for an adult animal with a body weight of 20 g and an approximate mass or weight of the liver of 1 g, 16 μg precursor Z was needed for complete reestablishment, however only 3 μg for an activation of 50%. […]

[4] = Oxidation of precursor Z to compound Z in 2x PBS buffer, UV-VIS; format: physicochemical
Method: (a) Oxidation of precursor Z to compound Z. (b) UV-VIS absorption spectrum of 22 μM precursor Z after 17 h incubation at room temperature in 2× PBS-Buffer (pH 6.9). The spectra were recorded and indicated in time intervals following dilution in Buffer. (c) […] of oxidation of precursor Z by recording the absorption at 350 nm from the spectra shown in (b).
In order to obtain larger amounts, we used a bacterial strain, which enriched precursor Z on the basis of a defect in the conversion to MPT. A further improvement in the yield could be achieved by over expression of the protein MoaA and MoaC, which catalyse the first step of Moco-synthesis. This leads to an approximately 5000-fold enrichment of precursor Z in comparison to wild type cells, with an average yield of 40 μg per L E. coli culture and a final concentration of 30-140 μg/ml. […] Under physiological and aerobic conditions at pH 6.9 (2×PBS buffer) a 22 μM solution of precursor Z was oxidized within 5 h completely to compound ZBe^9. The half time of precursor Z at pH 6.9 could be determined with 62±12 (FIG. 5c).

[5] = tested on: MOCS1-deficient mice; experiment: Water labyrinth learning test; format: in vivo
Method: FIG. 7: Ability to train precursor Z-treated MOCS1-deficient mice in a water labyrinth. The values represented a cross section of six wildtype- (wt, black bars) and six precursor Z treated MOCS1-deficient mice (MOCS1 ^−/−, white bars). […] C, time (of a total of 120 seconds), spent in the correct sector (without platform), which were learned in passes A and B.
Avoidance of light was tested in the light/dark box, in which the animals were placed into the light area and the time was determined until the animals sought out the darker area. […] The results were compared with wild-type controls. The mice were sequentially introduced into all four sectors and the time was measured until the animals found and climbed onto the platform (FIG. 7). […] In a second test series, the average swim time was reduced to 20-25% of the first test both in the “knockout” mice as well as with the control animals. In a third test series, the platform was removed and the time was measured that the mice spent in the “correct” sector—the sector that previously contained the platform. Both groups spent approximately 50% of the time in the correct sector.

[6] = tested on: MOCS1-deficient mice; experiment: Lifespan and phenotype of MOCS1-/- mice injected with precursor Z into the liver; format: in vivo; conditions: for Average Lifespan: injected into the liver
Method: The half-life of sulphite oxidase in rat liver was determined to be 3-4 days^B27.
The lowest dose amounted to 0.2 μg precursor Z, administered every second day. […] With the administration of 1-2 μg every third day the mice achieved a greater age and were suckled until day 20-30, thereafter the MOCS1^−/ animals however appeared slower in their flight reaction and in their internalization of their environment than the corresponding control animals. This difference disappeared about day 40, after which all MOCS1^−/− animals were as agile and full of life as the control individuals. […] The injection of 2-4 μg precursor Z every third day ws found to be the most successful treatment.

[7] = tested on: MOCS1-deficient mice; experiment: Open field test; format: in vivo; set-up: dose or concentration left out as unconfirmed; conditions: precursor Z every third day
[8] = adult animal, body weight 20 g, liver 1 g

Nc1nc2c(c(=O)[nH]1)N[C@@H]1[C@H](N2)O[C@@H]2COP(=O)(O)O[C@@H]2C1(O)O [precursor Z]
reconstitution ([1]; 27 ng precursor Z, liver extract of five day old MOCS1-deficient mice, 1 h): approximately 50%
reestablishment of Moco-biosynthesis ([1]; 134 ng precursor Z/mg protein, liver extract of five day old MOCS1-deficient mice, 1 h): near complete
amount of precursor Z needed for an activation of 50% [1, 8]: 3 µg
amount of precursor Z needed for complete reestablishment [1, 8]: 16 µg
total required amount of precursor Z per animal for complete reestablishment of MPT-synthesis ([1]; five day old animal, 6 mg liver extract protein, in vitro conditions): 0.8 µg
MPT-value in liver ([2]; day of the injection (day 0, 4 hours after the last injection)): 16±1 % of the wildtype
MPT-content in liver ([2]; within the following four days after last injection): less than 4 % of the wildtype value
conversion of precursor Z into MPT [3]: almost completely
stability under physiological conditions ([4]; 2x PBS-Buffer pH 6.9, room temperature): stable under physiological conditions
half time of precursor Z ([4]; pH 6.9, 2xPBS buffer, aerobic, 22 μM, room temperature): 62±12
time to complete oxidation to compound Z ([4]; pH 6.9, 2xPBS buffer, physiological and aerobic conditions, 22 μM solution): ≤ 5 h
water labyrinth: finding the platform versus wild-type controls ([5]; first series of tests): more rapidly than the wild-type control animals
water labyrinth: average swim time as % of the first test ([5]; second test series): 20-25%
water labyrinth: time spent in the correct sector ([5]; third test series, platform removed): approximately 50%
development and weight gain ([6]; 0.2 μg every second day, 11 mice): developed normally
Average Lifespan ([6]; 0.2 μg every second day): 17.7 days
Average Lifespan ([6]; 1 μg (prior to weaning) and 2 μg (after weaning) every third day): 32.9 days
Average Lifespan ([6]; 1 μg every third day): 25.2 days
Average Lifespan ([6]; 2 μg every second day): 47.4 days
fraction of treated animals that died between day 20 and 40 ([6]; 1-2 μg every third day): Approximately half
deaths between days 40-70 ([6]; 2-4 μg every third day): no animal died
offspring of pairings of treated animals ([6]; 2-4 μg every third day): normally developed, healthy off-spring
difference in weight, behavior or other phenotypic characteristics versus wild type or heterozygous siblings ([6]; prior to weaning): no difference could be determined
open field: movement, learning and social behavior versus wildtype [7]: no significant differences
